Data from PubChem BioAssay AID2305 (GlaxoSmithKline (GSK), 2010).
pIC50: −log10 of the molar value. Where “and” joins values, the source holds several entries; their conditions need not be identical. Equal values may be shown once.

Tested on: P. falciparum 3D7 growth, pLDH absorbance
Assay: blood-stage malaria parasite growth potency – strain 3D7, dose response (AID 2305)

SMILES | pIC50
CC(C)Cn1c(Sc2ccc(C#N)c([N+](=O)[O-])c2)nnc1-c1ccccc1Cl | 6.05
Cc1cccn2c(=O)c3cc(C(=O)NCCc4ccccc4)c(=N)n(CCCOC(C)C)c3nc12 | 6.32
O=C(/C=C/c1ccc(Cl)c(Cl)c1)NCCCCCN1CCC(NC(=O)Nc2ccc(C(F)(F)F)cc2)C1 (centres undefined) | 6.29
Cc1noc(C)c1-c1cccc(CNCc2ccc(-c3cccc(-c4nc5ccccc5[nH]4)c3)cc2)c1 | 6.24
Cc1cc(-c2nc3ccc(C(=N)N)cc3[nH]2)c(C)cc1-c1nc2ccc(C(=N)N)cc2[nH]1 | 6.40
Cc1[nH]nc2ccc(-c3cc(OC[C@@H](N)Cc4ccccc4)cnc3-c3ccccc3OCc3cccc(F)c3)cc12 | 5.91
COc1cccc(C2CCN(CCN3CCC(NC(=O)c4ccc(-c5ccc(Cl)cc5)cc4)CC3)CC2)c1 | 5.96
COc1ccc(C=NNc2cc(C)nc3ccc(OC)cc23)c(OC)c1 | 6.11
O=C(Nc1ccc(Cn2ncc(N3CCCNCC3)c(Cl)c2=O)cc1)Nc1ccc(-c2ccccc2)cc1 | 6.09 and 6.10
O=C1C(c2ccccc2)=C(Nc2ccc(OC(F)(F)F)cc2)c2ccccc21 | 6.96
CCNc1cc(C(=O)N[C@@H](Cc2ccccc2)[C@H](O)CNC(C)(C)CSCC(C)C)cc(N2CCCC2=O)c1 | 6.59
CCC1(CC)C(=O)N=C(N2CCCCC2)N(C)C1=O | 6.52
COc1ccc(NC(=O)CCNc2cc(C)nc(NCc3cccc(C)c3)n2)cc1 | 5.96
O=C(Nc1cccc(CN2CCCN(Cc3ccsc3)CC2)c1)c1ccc(-c2ccccc2)cc1 | 5.87
COCCNCc1ccc(-c2ccccc2CNC2CCN(Cc3ccccc3)CC2)cc1 | 6.01
Cc1noc(C)c1-c1cccc(CNCc2cccc(-c3cccc(-c4nc5ccc(C(F)(F)F)cc5[nH]4)c3)c2)c1 | 6.34
C[C@@H]1CN(c2cnn(C/C=C/c3ccc(NC(=O)c4ccc([N+](=O)[O-])cc4)cc3)c(=O)c2Cl)C[C@H](C)N1 | 6.15
COc1ccc2nccc([C@@H](O)CN3CCC(NCc4cnc5c(c4)NC(=O)CS5)CC3)c2c1 | 6.07
COc1ccc(-c2ccc(CNC(=O)c3cccc(C#N)c3)c(F)c2)cc1CN1CCCN(C)CC1 | 6.10
COc1cccc(CN2CCCN(Cc3cccc(NC(=O)c4cc5ccccc5s4)c3)CC2)c1 | 6.00
COC(=O)c1cccc(CN(CCC(O)(C(F)(F)F)C(F)(F)F)C(=O)CC2CCCC2)c1 | 6.04
Fc1cc(CN2CCCC2)ccc1OCCCN1CCN(c2cccc(Cl)c2Cl)CC1 | 5.98
NS(=O)(=O)c1ccccc1Nc1nc(Nc2ccc(N3CCOCC3)cc2)nc2c1CCC2 | 6.17
Cc1noc(C)c1-c1ccc(C(=C2CCCCCCC2)c2ccc(O)cc2)cc1 | 5.98

SMILES | pIC50
CN(C)S(=O)(=O)c1ccc(N2CCN(CCC3(c4cccc(F)c4)CCN(C(=O)C(C)(C)C)CC3)CC2)c2nonc12 | 6.15
O=c1c2ccc(Sc3ccccn3)cc2n(-c2ccccc2)c2cc(Sc3ccccn3)ccc12 | 6.70
Cc1csc(-c2nonc2NC(=O)COc2ccccc2C(C)C)n1 | 6.26
Cc1ccc(-c2nc(N3CCN(C(=O)c4ccco4)CC3)c3ccccc3n2)cc1 | 6.01
CCCCN(CCCC)C(=Nc1cccc(Cl)c1Cl)Nc1ccc(C#N)cc1O | 6.07
CN(C)c1ccc(-c2csc(C(=O)NCC3CCN(Cc4cccc(C(F)(F)F)c4)C3)c2)cc1 (centres undefined) | 6.08
C=C(C)COc1ccc(-c2n[nH]c(C(F)(F)F)c2-c2ccccc2OC)c(O)c1 | 6.11
CCC(CC)C(CC(=O)NC(C)(C)CCc1ccccc1OC)Nc1ccc(C#N)c2ccccc12 (centres undefined) | 6.10
COc1ccc(Br)cc1/C=C/C(=O)Nc1cccc(C2CCCN(C)C2)c1 (centres undefined) | 6.05
CCNc1cc(C(=O)N[C@@H](Cc2ccccc2)[C@H](O)CNC2CCSCC2)cc(N2CCCC2=O)c1 | 6.89
COc1cccc2cc(C(=O)N[C@@H](CC(C)C)C(=O)N[C@H](/C=N/N3CC(=O)NC3=O)CC(C)C)oc12 | 6.04
Nc1c2c(nc3ccc(C(=O)Nc4cc(I)c(O)c(I)c4)cc13)CCCC2 | 6.00
CN1CCN(CCCN(Cc2ccc(-c3cccc(CNCc4ccc5c(c4)OCO5)c3)cc2)C(=O)Nc2ccccc2)CC1 | 6.74
O=C(/C=C/c1ccc(Cl)c(Cl)c1)N1CCC(CN2CCC(c3c[nH]c4ccc(O)cc34)CC2)CC1 | 6.11
O=c1cc(NCCCCNCc2cccc(Br)c2)[nH]c2ccccc12 | 6.14
CCNc1cc(CC)nc(Nc2ccc(C)cc2)n1 | 6.07
CCOC(=O)c1ccc(N2CCN(c3cc(Cl)ccc3C)CC2)c(NC(=O)Nc2ccc(Cl)c(Cl)c2)c1 | 6.24
Cc1nc(NCc2ccccc2)cc(Nc2cc(NCc3ccccc3)nc(C)n2)n1 | 6.01
Cc1cccc2[nH]c(-c3ccc(-c4ccc(NC(=O)NCc5ccccc5)cc4)s3)nc12 | 6.11
COc1cccc(CN2CCCN(Cc3cccc(NC(=O)c4ccc(Cl)c(Cl)c4)c3)CC2)c1 | 5.84
C[C@@H]1CCC[C@H](C)N1C[C@@H](O)CNS(=O)(=O)c1cccc(C(F)(F)F)c1 | 6.16
Nc1cc(C=Cc2ccc([N+](=O)[O-])s2)nc2ccccc12 | 6.12
CC(=O)c1cccc(NC(=O)C2c3ccccc3C(=O)N(CC(C)C)C2c2cccs2)c1 (centres undefined) | 6.23
CCc1c(C(=O)NC2CCC(N3CCC(c4ccccc4C)CC3)CC2)[nH]c2ccc(OC)cc12 (centres undefined) | 6.09

SMILES | pIC50
COc1ccc2nccc([C@@H](O)CN3CCC(NC(=O)c4cc5c(F)cc(F)cc5[nH]4)CC3)c2c1 | 6.62
Cc1ccc(-c2ccc(Cl)cc2Oc2cnc(N)nc2N)o1 | 5.97
Cc1ccc2c(c1)c(-c1ccccc1)c(-c1ccccc1)n2CC(O)CN1CCN(CC=Cc2ccccc2)CC1 (centres undefined) | 6.11
CS(=O)(=O)c1ccc(CCNCc2ccc(-c3ccc(CN(C(=O)c4cccc(C#N)c4)C4CCN(Cc5ccccc5)CC4)cc3)nc2)cc1 | 6.01
O=C(NCCc1ccccc1)N(Cc1ccccc1-c1ccc(CNCCc2ccccc2)cc1)C1CCN(Cc2ccccc2)CC1 | 6.14
CC(ON1C(N)=NC(N)=NC1(C)C)c1ccccc1 (centres undefined) | 8.00
CN(Cc1ccccc1)C(=O)CCNS(=O)(=O)c1cc(Br)cnc1N | 5.95
O=C(/C=C/c1ccc(Cl)c(Cl)c1)NC1CCC(N2CCC(c3c[nH]c4ccc(O)cc34)CC2)CC1 (centres undefined) | 6.04
CCOC(=O)c1c(CN2CCN(C)CC2)n(Cc2ccccc2)c2cc(Br)c(O)cc12 | 6.23
CCNc1cc(C)nc(Nc2ccc(NC(=O)c3ccco3)cc2)n1 | 5.96
Cc1cc(N2CCN(C3CCCCC3)CC2)nc2cccc(O)c12 | 6.15
CCn1ccc2c(N3CCCS3(=O)=O)cc(C(=O)N[C@@H](Cc3ccccc3)[C@H](O)CNC(C)(C)c3cccc(OC)c3)cc21 | 7.40
CCC[C@]1(C)CSc2ccccc2[C@@H](c2ccccc2)N1 | 6.15
CCOC(=O)c1ccc(NC(=O)N[C@@H](Cc2ccccc2)C(=O)NC2CCN(Cc3ccc(O)cc3)C2)cc1 (some centres undefined) | 6.20
CC(=O)N(C)c1cccc(C(=O)Nc2ccc(-c3cccc(-c4nc5c(C)cccc5[nH]4)c3)cc2)c1 | 6.19
COc1ccc(-c2cccc(NC(=O)c3cccc(C#N)c3)c2)cc1CN1CCCN(C)CC1 | 6.72
Cc1cc(C(F)(F)F)n2nc(C(=O)N(Cc3cncn3Cc3cccc(F)c3)CC3CC3)cc2n1 | 6.13
O=C(CCCCCNC(=O)c1ccc(O)c(-c2ccc(Cl)c(Cl)c2)c1)NCc1cccc2ccccc12 | 6.12
CCn1c(-c2nonc2N)nc2c(-c3cccc(NC(=O)Nc4ccc(Cl)cc4)c3)ncc(OCCCN)c21 | 6.08
COc1cccc(CCNC(C)Cc2ccc(OCCCCOc3ccccc3)cc2)c1 (centres undefined) | 6.13
O=C(/C=C/c1ccc(Cl)c(Cl)c1)NCCCCCN1CCC(CCNC(=O)/C=C/c2cc(C(F)(F)F)ccc2F)CC1 | 6.11
Cc1c(CNCCCNc2nc3ccncc3[nH]2)sc(Br)c1Br | 5.98
CCC(CC(NCCCCNC(=O)c1ccc(NC(=O)c2ccc(Cl)cc2)cc1)c1ccccc1)c1ccccc1OC (centres undefined) | 6.17 and 6.10
CCCc1cc(OC)c(CC2c3cc(O)c(Cl)cc3C(c3ccccc3)CN2C)cc1OC (centres undefined) | 6.37

SMILES | pIC50
O=C(Cn1c(CCc2cccc(F)c2F)nc(=O)c2ccccc21)N(CCCN1CCCC1)Cc1ccc(-c2ccc(C(F)(F)F)cc2)cc1 | 6.03
COc1ccc(CCC(C)(C)NCC(O)c2cccc(C(F)(F)F)c2)cc1 (centres undefined) | 6.32
O=C(Nc1ccc2c(c1)CNCC2)c1ccc(-c2ccc(Cl)cc2)cc1 | 6.18
CCNC(=O)Nc1ccc(N(C)c2ccnc(NC3CC3)n2)cc1 | 6.10
C=CCn1c(SCC(=O)Nc2cc(C)ccc2OC)nc2sc(C)cc2c1=O | 6.38
COc1cc2[nH]c(-c3ccc(O)cc3)c(C)c(=O)c2c(OC)c1OC | 6.14
O=c1cc(NCCCNCc2cc3ccccc3s2)[nH]c2ccccc12 | 5.90
Cc1cc(SC(C)(C)C)cc2c(Cl)c(C(N)=O)cnc12 | 5.96
COc1ccccc1Oc1c(N(C)S(=O)(=O)c2ccc(C(C)C)cc2)nc(C(F)(F)F)nc1N(C)S(=O)(=O)c1ccc(C(C)C)cc1 | 6.07
CC(C)c1ccc(CN2CCC(CNC(=O)c3cc(-c4cccc(Cl)c4)cs3)C2)cc1 (centres undefined) | 6.12
N#Cc1cccc(Nc2nccc(NCC(O)c3cccc(C(F)(F)F)c3)n2)c1 (centres undefined) | 6.26
CC(C)(C)c1ccc(CN2CCCCC(NC(=O)c3cc(-c4ccccc4Cl)cs3)C2)cc1 (centres undefined) | 5.95
Cc1cc(N[C@@H](Cc2ccccc2)C(=O)NCCCOC(C)C)nc(NCC2CCCCC2)n1 | 6.06
CCCCCCN1CCCN(Cc2ccc(C(=O)Nc3ccc(C)c(F)c3)cc2)CC1 | 6.48
Cc1cc(NCCC(=O)NCCOc2ccccc2)nc(NCCc2ccccc2)n1 | 5.91
CC(=O)Nc1cccc(CNCc2ccc(-c3cnc(N4CCCC(c5ccccc5)C4)nc3)cc2)c1 (centres undefined) | 5.92
CCS(=O)(=O)Nc1ccc2[nH]cc(C3CCN(CCC4CCN(C(=O)/C=C/c5ccc(Cl)c(Cl)c5)CC4)CC3)c2c1 | 6.28
CC(=O)Oc1c(C(=O)C2CCC(C(C)(C)C)CC2)c(OC(C)=O)c2ccccc2c1OC(C)=O (centres undefined) | 6.57
O=C(NCCCCN1CCN(c2cccc3c2CCCC3)CC1)c1ccc(NC(=O)c2ccc(Cl)cc2)cc1 | 6.35
CN(C)c1cccc(NC(=O)N[C@H]2N=C(c3ccccc3)c3ccccc3N(CC(=O)N3CCCC3)C2=O)c1 | 6.60
COc1ccc(NC(=O)[C@H](CC(C)C)Nc2cc(C)nc(NCCc3ccc(F)cc3)n2)cc1 | 6.04
COC(=O)c1ccc(N2CCN(CCCCNC(=O)c3ccc(NC(=O)c4ccc(Cl)cc4)cc3)CC2)c(OC)c1 | 5.89
